# Experimental data as given in patent US20180318355A1, “METHODS AND COMPOSITIONS FOR IMPROVED TISSUE REGENERATION BY SUPPRESION OF INTERFERIN-GAMMA AND TUMOR NECROSIS FACTOR-ALPHA” (Alfred E. Mann Institute for Biomedical Eng. at the …, priority 2011, published 2018).
# “Also recorded” adds a separate entry of the source.
# Tests used:
# IFN-γ = test: ELISA of IFN-γ level in BMMSC implants; format: in vivo, mice; conditions: aspirin treatment vs untreated control, 2 to 14 days post implantation
# Source text: (§1) Kits. Pan T cell isolation kit II and CD4^+CD25^+ regulatory T Cell isolation kit were purchased from Miltenyi Biotec (Bergisch Gladbach, Germany). Mouse IFN-γ, TNF-α, IL-6, IL-17A, IL-4 and IL-10 ELISA Ready-SET-GO kits were purchased from eBioscience (San Diego, Calif.). siRNA kits for Fas, Smad 6, TNFR2, IKK, FLIP and XIAP were purchased from Santa Cruz Biosciences (Santa Cruz, Calif.).
# TNF-α positive cells = test: Immunohistochemical staining of TNF-α positive cells in BMMSC implants; format: in vivo; conditions: aspirin treated vs untreated control, C57BL6 mice
# Experimental: (§2) Immunofluorescent and immunochemical microscopy. The transplants were harvested, fixed in 4% paraformaldehyde and then decalcified with 5% ethylenediaminetetraacetic acid (EDTA, pH 7.4), followed by paraffin or optimal cutting temperature compound (OCT, Sakura Fineteck Inc., Torrance, Calif.) embedding. The paraffin or frozen sections were blocked with normal serum matched to secondary antibodies, incubated with the specific or isotype-matched mouse antibodies (1:200) overnight at 4° C. For immunofluorescent staining, the samples were treated with Rhodamin/FITC-conjugated secondary antibodies (1:200, Jackson ImmunoResearch, West Grove, Pa.; Southern Biotechnology, Birmingham, Ala.), and were mounted by means of a vectashield mounting medium containing 4′,6-diamidino-2-phenylindole (DAPI) (Vector Laboratories, Burlingame, Calif.). For immunochemical staining, the samples were stained by using Zymed SuperPicture™ Kit (Invitrogen Corporation) according to the manufacturer's instruction.
# (§3) Immunochemical microscopy. The transplants were harvested, fixed in 4% paraformaldehyde and then decalcified with 5% ethylenediaminetetraacetic acid (EDTA, pH 7.4), followed by paraffin or optimal cutting temperature compound (OCT, Sakura Fineteck Inc., Torrance, Calif.) embedding. […]
# IL-10 = test: ELISA of IL-10 level in BMMSC implants; format: in vivo, mice; conditions: aspirin treatment vs untreated control, 2 to 14 days post implantation
# Source text: as §1
# IFN-γ positive cells = test: Immunohistochemical staining of IFN-γ positive cells in BMMSC implants; format: in vivo; conditions: aspirin treated vs untreated control, C57BL6 mice
# Experimental: as §2, §3
# [1] = tested on: osteoclastogenesis, osteogenesis; conditions: literature (13-15); cited from earlier work
# GFP^+ BMMSCs = test: Cell survival assay, subcutaneous GFP+ BMMSC implantation; format: in vivo, mice; conditions: 50 μg/ml aspirin pre-treated 2 days, 100 μg aspirin co-implanted, 4 to 30 days post implantation
# Experimental: Cell survival assay. 4×10^6 BMMSCs isolated from C57BL/6-Tg (CAG-EGFP)1Osb/J mice were combined with different concentrations of IFN-γ (0, 20, 50, 100, 200 ng/ml) and TNF-α (0, 20, 50, 100, 200 ng/ml) and subcutaneously transplanted into immunocompromised mice, hydrogel was used as a slowly released carrier. Thirty days after translation, the implants were harvested and digested in a solution of 3 mg/mL collagenase type I (Worthington Biochem) and 4 mg/mL dispase (Roche) for 1 h at 37° C. Single-cell suspensions were obtained by passing the cells through a 70 μm strainer (BD Bioscience). 1.0-1.5×10^6 BMMSCs were seeded into 100 mm culture dishes (Corning) and incubated for 48 hours under 37° C. at 5% CO2 condition. To eliminate the non-adherent cells, the cultures were washed with PBS twice. The attached cells were cultured for 10 days with alpha minimum essential medium (α-MEM, Invitrogen) supplemented with 20% FBS, 2 mM L-glutamine (Invitrogen), 55 μM 2-mercaptoethanol (Invitrogen), 100 U/ml penicillin, and 100 μg/ml streptomycin (Invitrogen). The numbers of GFP positive cells were counted under fluorescent microscopy.
# calvarial bone defects = test: Calvarial bone defect repair by BMMSC/gelfoam implantation; format: in vivo, C57BL/6J mice
# Experimental: Calvarial bone defect model in C57BL/6J mice. The skin of C57BL/6J mice was cut and periosteum was elevated. The surface of mouse cavarial bone was exposed, and oversize bone defects of 7 mm×8 mm were established. The bone defect was larger than usually critical size with diameter of 4 mm.
# Implantation of BMMSCs to calvarial bone defects in C57BL/6J mice. 4×10^6 BMMSCs were seeded to a size of 7 mm×8 mm gelfoam (Pharmaca, Boulder, Colo.) and cultured for 3 days in vitro. The gelfoam with BMMSCs was placed to the calvarial bone defects and covered completely by skins. For aspirin treated group, the BMMSCs seeded on gelfoam were pretreated with 50 μg/ml aspirin for 3 days, then placed to the calvarial bone defect. Another gelfoam with 100 μg aspirin as a releasing system was covered on the surface of the gelfoam with BMMSCs (FIG. 14).
# TNF-α = test: ELISA of TNF-α level in BMMSC implants; format: in vivo, mice; conditions: aspirin treatment vs untreated control, 2 to 14 days post implantation
# Source text: as §1
# [2] = tested on: BMMSC-mediated bone formation; test: BMMSC-mediated bone formation, subcutaneous BMMSC/HA/TCP implantation; format: in vivo; conditions: immunocompromised mice
# Experimental: BMMSC-mediated bone formation. Approximately 4.0×10^6 BMMSCs were mixed with hydroxyapatite/tricalcium phosphate (HA/TCP) ceramic particles (40 mg, Zimmer Inc., Warsaw, Ind.) as a carrier and subcutaneously implanted into the dorsal surface of 8-10 weeks old immunocompromised mice or C57BL/6J mice. At eight weeks post-implantation, the implants were harvested, fixed in 4% paraformaldehyde and then decalcified with 5% EDTA (pH 7.4), followed by paraffin embedding. The 6 μm paraffin sections were stained with hematoxylin and eosin (H&E) and analyzed by an NIH Image J. Five fields were selected and newly formed mineralized tissue area in each field was calculated and shown as a percentage to total tissue area.
# Cytokines in BMMSC-mediated bone formation. Approximately 4.0×10^6 of littermate-derived or autologous BMMSCs were mixed with HA/TCP ceramic powders (40 mg, Zimmer Inc.), and hydrogel (Glycosan Biosysterms, Salt Lake City, Utah) with 200 ng IFN-γ, TNF-α, IL-4, IL-6 or IL-17A were covered on the surface of the implants as a slow released system. At eight weeks post-implantation, the implants were harvested and newly formed mineralized tissue areas were analyzed. […]
# BMMSC-mediated bone formation. Approximately 4.0×10^6 of littermate-derived or autologous BMMSCs were mixed with hydroxyapatite/tricalcium phosphate (HA/TCP) ceramic particles (40 mg, Zimmer Inc., Warsaw, Ind.) as a carrier and subcutaneously implanted into the dorsal surface of 8-10 weeks old immunocompromised mice or C57BL6 mice. When aspirin was used, BMMSCs were treated with 50 μg/ml aspirin for 2 days and mixed with HA/TCP particles to be subcutaneously implanted into immunocompromised mice. When IFN-γ and TNF-α were used in the subcutaneous implants, 200 ng IFN-γ, TNF-α or/and 100 μg aspirin mixed with 250 μl hydrogel as a slow released system and subcutaneously co-implanted to the dorsal surface of 8-10 weeks old immunocompromised mice.
# At eight weeks post-implantation, the implants were harvested, fixed in 4% paraformaldehyde and then decalcified with 5% EDTA (pH 7.4), followed by paraffin embedding. The 6 μm paraffin sections were stained with hematoxylin and eosin (H&E) and analyzed by an NIH Image J. Five fields were selected and newly formed mineralized tissue area in each field was calculated and shown as a percentage to total tissue area.
structure (smiles),measurement,setting,value
CC(=O)Oc1ccccc1C(=O)O [aspirin],level of IFN-γ in BMMSC implants,IFN-γ,reduces; also recorded: suppressed
same,TNF-α positive cells in BMMSC implants,TNF-α positive cells,significantly decreased; also recorded: suppressive effect
same,level of IL-10 in BMMSC implants,IL-10,not and without affecting
same,IFN-γ positive cells in BMMSC implants,IFN-γ positive cells,significantly decreased; also recorded: suppressive effect
same,osteoclastogenesis,[1],inhibits osteoclastogenesis
same,osteogenesis,[1],improves osteogenesis
same,numbers of surviving GFP positive BMMSCs in implants,GFP^+ BMMSCs,significantly increased numbers of survival cells; also recorded: significant increase in survival of BMMSCs
same,repair of 7×8 mm calvarial bone defects,"calvarial bone defects; BMMSCs cultured with 50 μg/ml aspirin, gelfoam containing 100 μg aspirin, 12 weeks, microQCT, vs BMMSC/gelfoam",completely repaired; also recorded: significantly improves BMMSC-based calvarial defect repairing; also recorded: marked improvement in repairing calvarial defects
same,structure of regenerated tissues versus normal calvarial tissues,calvarial bone defects; BMMSCs with gelfoam containing aspirin (100 μg),analogous to normal calvarial tissues
same,level of TNF-α in BMMSC implants,TNF-α,reduces; also recorded: suppressed
same,BMMSC-mediated bone formation suppressed by IFN-γ or TNF-α,"[2]; 200 ng IFN-γ or TNF-α co-implanted, 50 μg/ml aspirin pre-treatment and 100 μg aspirin co-implanted",significant rescuing of BMMSC-mediated bone formation; also recorded: restored bone formation
same,amount of new bone formation,"[2]; BMMSCs treated with 50 μg/ml aspirin for 2 days, HA/TCP, vs untreated control",increased
